Measured values: PubChem BioAssay (NCI)
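Following 48 hours of exposure in 96-well plates, responses at five concentrations were used to interpolate endpoints linearly. TGI marks complete inhibition of growth.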

Experiments:
Assay in all cases: NCI anticancer screen, dose series, 48 h
786-0 renal = test system: 786-0 renal
A549 NSCLC = test system: A549 NSCLC
CAKI-1 renal = test system: CAKI-1 renal
CCRF-CEM leukemia = test system: CCRF-CEM leukemia
COLO 205 colon = test system: COLO 205 colon
DU-145 prostate = test system: DU-145 prostate
EKVX NSCLC = test system: EKVX NSCLC
HCC-2998 colon = test system: HCC-2998 colon
HCT-15 colon = test system: HCT-15 colon
HL-60(TB) leukemia = test system: HL-60(TB) leukemia
HOP-62 NSCLC = test system: HOP-62 NSCLC
HT29 colon = test system: HT29 colon
IGROV1 ovarian = test system: IGROV1 ovarian
K-562 leukemia = test system: K-562 leukemia
KM12 colon = test system: KM12 colon
M14 melanoma = test system: M14 melanoma
MALME-3M melanoma = test system: MALME-3M melanoma
MCF7 breast = test system: MCF7 breast
MDA-MB-231 breast = test system: MDA-MB-231 breast
MDA-N = test system: MDA-N
MOLT-4 leukemia = test system: MOLT-4 leukemia
NCI-H23 lung = test system: NCI-H23 lung
OVCAR-8 ovarian = test system: OVCAR-8 ovarian
PC-3 prostate = test system: PC-3 prostate
RPMI-8226 leukemia = test system: RPMI-8226 leukemia
RXF 393 renal = test system: RXF 393 renal
SF-268 CNS = test system: SF-268 CNS
SF-295 CNS = test system: SF-295 CNS
SK-MEL-28 melanoma = test system: SK-MEL-28 melanoma
SK-MEL-5 melanoma = test system: SK-MEL-5 melanoma
SK-OV-3 ovarian = test system: SK-OV-3 ovarian
SN12C renal = test system: SN12C renal
SNB-75 CNS = test system: SNB-75 CNS
SR leukemia = test system: SR leukemia
SW-620 colon = test system: SW-620 colon
T-47D breast = test system: T-47D breast
TK-10 renal = test system: TK-10 renal
UACC-257 melanoma = test system: UACC-257 melanoma
UACC-62 melanoma = test system: UACC-62 melanoma
A498 renal = test system: A498 renal
ACHN renal = test system: ACHN renal
BT-549 breast = test system: BT-549 breast
HCT-116 colon = test system: HCT-116 colon
LOX IMVI melanoma = test system: LOX IMVI melanoma
MDA-MB-435 = test system: MDA-MB-435
NCI-H460 lung = test system: NCI-H460 lung
NCI/ADR-RES ovarian = test system: NCI/ADR-RES ovarian
OVCAR-3 ovarian = test system: OVCAR-3 ovarian
OVCAR-5 ovarian = test system: OVCAR-5 ovarian
SF-539 CNS = test system: SF-539 CNS
SNB-19 CNS = test system: SNB-19 CNS
U251 CNS = test system: U251 CNS
UO-31 renal = test system: UO-31 renal

Compound: N#Cc1ccc(NC(=NCC(=O)O)Nc2cccc3ccccc23)cc1
- TGI (786-0 renal): > 10 µM
- TGI (A549 NSCLC): > 10 µM
- TGI (CAKI-1 renal): > 10 µM
- TGI (CCRF-CEM leukemia): > 10 µM
- TGI (COLO 205 colon): > 10 µM
- TGI (DU-145 prostate): > 10 µM
- TGI (EKVX NSCLC): > 10 µM
- TGI (HCC-2998 colon): > 10 µM
- TGI (HCT-15 colon): > 10 µM
- TGI (HL-60(TB) leukemia): > 10 µM
- TGI (HOP-62 NSCLC): > 10 µM
- TGI (HT29 colon): > 10 µM
- TGI (IGROV1 ovarian): > 10 µM
- TGI (K-562 leukemia): > 10 µM
- TGI (KM12 colon): > 10 µM
- TGI (M14 melanoma): > 10 µM
- TGI (MALME-3M melanoma): > 10 µM
- TGI (MCF7 breast): > 10 µM
- TGI (MDA-MB-231 breast): > 10 µM
- TGI (MDA-N): > 10 µM
- TGI (MOLT-4 leukemia): > 10 µM
- TGI (NCI-H23 lung): > 10 µM
- TGI (OVCAR-8 ovarian): > 10 µM
- TGI (PC-3 prostate): > 10 µM
- TGI (RPMI-8226 leukemia): > 10 µM
- TGI (RXF 393 renal): > 10 µM
- TGI (SF-268 CNS): > 10 µM
- TGI (SF-295 CNS): > 10 µM
- TGI (SK-MEL-28 melanoma): > 10 µM
- TGI (SK-MEL-5 melanoma): > 10 µM
- TGI (SK-OV-3 ovarian): > 10 µM
- TGI (SN12C renal): > 10 µM
- TGI (SNB-75 CNS): > 10 µM
- TGI (SR leukemia): > 10 µM
- TGI (SW-620 colon): > 10 µM
- TGI (T-47D breast): > 10 µM
- TGI (TK-10 renal): > 10 µM
- TGI (UACC-257 melanoma): > 10 µM
- TGI (UACC-62 melanoma): > 10 µM

Compound: C1=C(CC2=C[P+](c3ccccc3)(c3ccccc3)C=C(c3ccccc3)O2)OC(c2ccccc2)=C[P+]1(c1ccccc1)c1ccccc1
- TGI (786-0 renal): 2.07 µM
- TGI (A498 renal): 2.09 µM
- TGI (A549 NSCLC): 5.49 µM
- TGI (ACHN renal): 1.98 µM
- TGI (BT-549 breast): 0.309 µM
- TGI (CAKI-1 renal): 5.39 µM
- TGI (CCRF-CEM leukemia): 1.54 µM
- TGI (COLO 205 colon): 0.301 µM
- TGI (DU-145 prostate): 1.73 µM
- TGI (EKVX NSCLC): 1.68 µM
- TGI (HCT-116 colon): 1.25 µM
- TGI (HCT-15 colon): 3.22 µM
- TGI (HL-60(TB) leukemia): 0.446 µM
- TGI (HOP-62 NSCLC): 1.88 µM
- TGI (HT29 colon): 1.35 µM
- TGI (IGROV1 ovarian): 0.43 µM
- TGI (KM12 colon): 1.1 µM
- TGI (LOX IMVI melanoma): 1.67 µM
- TGI (M14 melanoma): 1.8 µM
- TGI (MALME-3M melanoma): 0.697 µM
- TGI (MDA-MB-231 breast): 0.938 µM
- TGI (MDA-MB-435): 1.11 µM
- TGI (MDA-N): 1.22 µM
- TGI (MOLT-4 leukemia): 1.6 µM
- TGI (NCI-H23 lung): 2.2 µM
- TGI (NCI-H460 lung): 2.03 µM
- TGI (NCI/ADR-RES ovarian): 66.7 µM
- TGI (OVCAR-3 ovarian): 1.16 µM
- TGI (OVCAR-5 ovarian): 2.39 µM
- TGI (OVCAR-8 ovarian): 0.69 µM
- TGI (PC-3 prostate): 1.4 µM
- TGI (RPMI-8226 leukemia): 0.558 µM
- TGI (SF-268 CNS): 1.61 µM
- TGI (SF-295 CNS): 1.84 µM
- TGI (SF-539 CNS): 1.36 µM
- TGI (SK-MEL-28 melanoma): 2.02 µM
- TGI (SK-MEL-5 melanoma): 0.964 µM
- TGI (SK-OV-3 ovarian): 1.41 µM
- TGI (SNB-19 CNS): 1.25 µM
- TGI (SNB-75 CNS): 0.881 µM
- TGI (SR leukemia): 0.538 µM
- TGI (SW-620 colon): 1.42 µM
- TGI (TK-10 renal): 1.67 µM
- TGI (U251 CNS): 1.23 µM
- TGI (UACC-257 melanoma): 1.33 µM
- TGI (UO-31 renal): 2.94 µM
